Laboratory results: patent US20030162834A1, “Natural physiologically active material effective on fish diseases and fish food containing the material” (priority 1998, published 2003)

Columns and labels:
Cryptocaryon irritans [1] = test: Trial 10: immersion of infected tiger puffer in seawater containing octanoic acid; type: in vivo; details: 200 ppm for 2 minutes, 3 hours after return to seawater
Experimental: 300 g of tiger puffer infected with Cryptocaryon irritans was immersed in seawater containing 200 ppm of octanoic acid for 2 minutes, and then returned to seawater again. After 3 hours from return to seawater, the parasites Cryptocaryon irritans and their situations and numbers were observed.

Cryptocaryon irritans [2] = test: Trial 7: vitamin C enhancement trial on red sea bream; type: in vivo; details: oral
From the text: Fish tested: Red sea bream weighing approximately 15.8 g in average.
Trial groups: Three groups, i.e., an octanoic-acid added group in which fish were fed diets added with octanoic acid, an octanoic-acid added/vitamin-C enhanced group in which fish were fed diets added with both octanoic acid and vitamin C, and a control group in which fish were fed diets not added with octanoic acid. The feeding rate was 3% of fish weight/day for each group.
Trial diets: The diets added with octanoic acid were prepared by spraying 2.5 g of octanoic acid to 1 kg of commercially available pellets for red sea bream. The diets added with both octanoic acid and vitamin C were prepared by spraying 200 mg of vitamin C, dissolved in water, to 1 kg of the above diets added with octanoic acid. The control group fish were fed the commercially available pellets for red sea bream.
Challenge trial: Each 30 pieces of fish from among a shoal of fish, in which no diseases such as Cryptocaryon irritans infection were found, were put in a 100-liter water tank, and were fed the respective trial diets. After 5 days, approximately 2000 individuals of theronts of Cryptocaryon irritans were put into each water tank to infect the fish while water flow was stopped for 1 hour. Then, bleeding was continued for 60 days. During the trial period, the water temperature was 24+−1 degrees centigrade and the water was exchanged at 20 cycles/day.
Evaluation was made by sampling 5 pieces of fish from each group after 18 and 31 days from the start of the challenge, comparing the number of the parasites attaching to the gill of each fish, and comparing mortality of the fish during the trial period between the respective groups.

[3] = system: Heterobothrium okamotoi larvae; test: Immersion of Heterobothrium okamotoi larvae in seawater with dissolved octanoic acid; type: cell-based; details: seawater in which octanoic acid was dissolved
Experimental: Larvae of parasites Heterobothrium okamotoi were immersed in seawater in which octanoic acid was dissolved. […] Octanoic acid is an edible natural material contained in palm oil, butter and nuts, and has been used in a drug applied to dyspeptics, for example.

CCCCCCCC(=O)O [octanoic acid]
number of parasites attaching to the body surface (Cryptocaryon irritans [1]; before treatment 193/2 cm^2): 261 /2 cm^2
number of parasites attaching to the gill (Cryptocaryon irritans [1]; before treatment 624): 356 per branchial arch
body-surface parasites that showed movement and seemed still alive (Cryptocaryon irritans [1]; of 261): 9
gill parasites that showed movement and seemed still alive (Cryptocaryon irritans [1]; of 356): 193
number of parasites attaching to the gill after 18 and 31 days (Cryptocaryon irritans [2]; 2.5 g octanoic acid per 1 kg pellets (with or without 200 mg vitamin C per kg)): apparently fewer
fish mortality during the trial (Cryptocaryon irritans [2]; 2.5 g octanoic acid per 1 kg pellets (with or without 200 mg vitamin C per kg), 60 days): all dead
time at which the fish began dying, versus control (Cryptocaryon irritans [2]; 2.5 g octanoic acid per 1 kg pellets): later
effect on larvae [3]: died due to the occurrence of structural damages (such as vacuolation)
